Data set [1] can be described thus: Single-dose, dose escalation study Part 1: pharmacokinetics of plasma and urine DSCG in healthy subjects. The data set is classed as in vivo, human. As to conditions: same dose (40 mg). The protocol: • 1. […] 200 mg oral sodium cromoglycate solution (commercially available product), oral administration. […] 200 mg oral sodium cromoglycate solution (commercially available product), oral administration.
Prior to each dosing day, subjects were admitted to the clinic in the morning for baseline (pre-dose) assessments. Subjects were required to remain in the clinic for 12 h after study drug administration on each dosing day. Treatment Visits were separated by a washout period of 2 to 5 days.
Urine DSCG levels were measured for total DSCG excretion in the urine, and the bioavailability of the DSCG was calculated from the measured levels.
Pharmacokinetic parameters and plasma concentrations are listed and summarized. The summary statistics are presented as the geometric mean, arithmetic mean, arithmetic standard deviation (SD), min, median, max and n. The geometric statistics are not presented for Tmax. Analysis of variance (ANOVA) including terms for subject and treatment are used to calculate point estimates, and confidence intervals (CI) for treatment differences with respect to PK parameters (90% CI) are calculated.

For data set [2] the following is noted: cited from earlier work.

Read-outs that look alike come from different tables or passages of the source.

Turning to `O=C(O)c1cc(=O)c2c(OCC(O)COc3cccc4oc(C(=O)O)cc(=O)c34)cccc2o1` [Cromolyn sodium, cromolyn sodium], the “lung deposition with the 30 L device compared with the 40 L device, indicated by AUC data” value in data set [1] is given as “surprisingly higher”. Further, the oral bioavailability result in data set [2] (listed as cromolyn sodium) is “less than 1%”; in data set [2] (listed as cromolyn), “about 1%”.

The values are drawn from patent US10265296B2, “Methods for the treatment of systemic disorders treatable with mast cell stabilizers, including mast cell related disorders” (Respivant Sciences GmbH, priority 2015, dated 2019).
